Laboratory results: article PMC8839585, “Development of a Real-Time Pectic Oligosaccharide-Detecting Biosensor Using the Rapid and Flexible Computational Identification of Non-Disruptive Conjugation Sites (CINC) Biosensor Design Platform” (Sensors (Basel, Switzerland), 2022)

Tests used:
[1] = target: T1, TogB (Yersinia enterocolitica, UniProt A0ACH1C7V4, D363C); experiment: stopped-flow fluorescence titration of MDCC-labelled purified protein; type: binding
T1 construct: gene yesO; TogB without signal secretion peptide, D363C conjugated to MDCC
T1 sequence (A0ACH1C7V4 27-430 D363C): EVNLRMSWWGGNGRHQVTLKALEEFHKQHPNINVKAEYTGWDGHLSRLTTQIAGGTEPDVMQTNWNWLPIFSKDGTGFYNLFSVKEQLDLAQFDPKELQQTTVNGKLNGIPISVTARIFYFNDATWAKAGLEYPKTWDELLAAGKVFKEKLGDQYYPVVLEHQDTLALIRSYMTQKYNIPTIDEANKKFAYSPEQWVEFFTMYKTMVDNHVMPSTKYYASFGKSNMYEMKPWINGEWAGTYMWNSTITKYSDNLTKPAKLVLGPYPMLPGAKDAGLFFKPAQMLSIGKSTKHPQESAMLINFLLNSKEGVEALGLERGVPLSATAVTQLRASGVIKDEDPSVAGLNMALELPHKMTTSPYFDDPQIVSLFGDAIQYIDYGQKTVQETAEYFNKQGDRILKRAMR

[2] = target: T1, TogB; experiment: equilibrium fluorescence change of MDCC-labelled purified protein at […] ligand (n = […]); type: binding

**Q.** For O=C(O)[C@H]1O[C@H](O[C@@H]2[C@H](O)[C@@H](O)C(O)O[C@@H]2C(=O)O)[C@H](O)[C@@H](O)[C@H]1O (stereo partly drawn) [digalUA, digalacturonic acid], which Kd [1] is on record?
**A.** 6 ± 1 µM

**Q.** With O=C(O)[C@H]1O[C@H](O[C@@H]2[C@H](O)[C@@H](O)[C@@H](O[C@@H]3[C@H](O)[C@@H](O)C(O)O[C@@H]3C(=O)O)O[C@@H]2C(=O)O)[C@H](O)[C@@H](O)[C@H]1O (stereo partly drawn) [trigalUA, trigalacturonic acid] as the molecule, how does the fluorescence change [2] read?
**A.** −44%

**Q.** O=C(O)C1=C[C@H](O)[C@@H](O)[C@@H](O[C@@H]2[C@H](O)[C@@H](O)C(O)O[C@@H]2C(=O)O)O1 (stereo partly drawn) [unsatdigalUA, 4,5-unsaturated digalacturonic acid] was tested. Which Kd [1] did it give?
**A.** 1.3 ± 0.5 µM
